Data on 32 compounds can be found in ChEMBL document CHEMBL1136176, “QSAR study on the affinity of some arylpiperazines towards the 5-HT1A/alpha1-adrenergic receptor using the E-state index” (Bioorg Med Chem Lett, 2003).

Common to all, as to type: functional, tissue-based
Test [1] has as its target T1, 5-hydroxytryptamine receptor 1A (Rattus norvegicus) (UniProt P19327).
T1 sequence (whole entry): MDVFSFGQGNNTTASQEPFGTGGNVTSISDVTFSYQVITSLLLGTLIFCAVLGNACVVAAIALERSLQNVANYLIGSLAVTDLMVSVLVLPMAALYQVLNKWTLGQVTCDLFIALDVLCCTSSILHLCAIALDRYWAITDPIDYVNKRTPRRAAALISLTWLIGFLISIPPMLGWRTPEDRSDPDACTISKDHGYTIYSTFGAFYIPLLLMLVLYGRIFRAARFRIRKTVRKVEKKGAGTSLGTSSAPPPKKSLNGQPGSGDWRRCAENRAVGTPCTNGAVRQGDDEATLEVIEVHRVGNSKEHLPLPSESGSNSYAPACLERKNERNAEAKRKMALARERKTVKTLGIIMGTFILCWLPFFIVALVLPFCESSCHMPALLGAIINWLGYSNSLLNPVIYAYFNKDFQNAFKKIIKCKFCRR
The test can be described thus: Antagonistic activity against 5-hydroxytryptamine 1A receptor in rat cerebral cortex using [3H]-8-OH-DPAT as radioligand.

Test [2] deals with T1, 5-hydroxytryptamine receptor 1A (Rattus norvegicus). The test can be described thus: Antagonistic activity against 5-hydroxytryptamine 1A receptor in rat cerebral cortex using [3H]8-OH-DPAT as radioligand.
For test [3], the target named is Adrenergic receptor alpha-1 (Rattus norvegicus) (UniProt P15823+P23944+P43140). Description: Antagonistic activity against alpha-1 adrenergic receptor in rat cerebral cortex using [3H]prazosin as radioligand.

Compound `CC(C)C(=O)Nc1cccc(N2CCN(CCCN3C(=O)C4CCCCN4C3=O)CC2)c1` (stereo unspecified) returned a pK1 in test [1] of 6.11. This compound yielded a K1 in test [2] of 776 nM. In test [3], this compound registered a K2 of 4430 nM and a pK2 of 5.35.

As for `CC(C)C(=O)Nc1cccc(N2CCN(CCCN3CC(=O)N4CCCC4C3=O)CC2)c1` (stereo unspecified), the pK1 in test [1] is 6.57. This compound also yielded a K1 in test [2] of 266 nM. In test [3], this compound came in with a K2 of 1440 nM and a pK2 of 5.84.

The compound `Cc1ccccc1N1CCN(CCCCN2CC(=O)N3CCCCC3C2=O)CC1` (stereo unspecified) had a pK1 in test [1] of 7.5. This compound also showed a K1 in test [2] of 32 nM. Besides, in test [3], the K2 amounted to 27 nM and the pK2 amounted to 7.56.

Compound `O=C1C2CCCCN2C(=O)CN1CCCN1CCN(c2ccccc2C(F)(F)F)CC1` (stereo unspecified) gave a pK1 in test [1] of 6.75. The same compound showed a K1 in test [2] of 179 nM. For the same compound, in test [3], the K2 was determined as 339 nM and the pK2 amounted to 6.47.

In test [1], `Cc1ccccc1N1CCN(CCCN2C(=O)C3CCCCN3C2=O)CC1` (stereo unspecified) had a pK1 of 6.66. Also, in test [2], the K1 was determined as 220 nM. Moreover, in test [3], the K2 is 5.7 nM and the pK2 came out at 8.25.

In test [1], `Nc1cccc(N2CCN(CCCN3C(=O)C4CCCN4C3=O)CC2)c1` (stereo unspecified) came in with a pK1 of 5.93. The compound further registered a K1 in test [2] of 1180 nM. Besides, in test [3], the K2 was 393 nM and the pK2 came out at 6.41.

Turning to `CCCOC(=O)c1ccccc1N1CCN(CCCCN2CC(=O)N3CCCCC3C2=O)CC1` (stereo unspecified), the pK1 in test [1] is 7.55. The compound also showed a K1 in test [2] of 28 nM. In test [3], the K2 turned out to be 392 nM and the pK2 came to 6.41.

Take `CCCOC(=O)c1ccccc1N1CCN(CCCN2CC(=O)N3CCCC3C2=O)CC1` (stereo unspecified): in test [3], the K2 is 12 nM and the pK2 came to 7.93.

Regarding `CCCNC(=O)c1ccccc1N1CCN(CCCN2CC(=O)N3CCCCC3C2=O)CC1` (stereo unspecified), in test [1], the pK1 turned out to be 5.34. The K1 in test [2] worked out at 4610 nM. In test [3], this compound gave a K2 of 811 nM and a pK2 of 6.09.

`N#Cc1ccccc1N1CCN(CCCCN2CC(=O)N3CCCCC3C2=O)CC1` (stereo unspecified) came in with a pK1 in test [1] of 7.82. The K1 in test [2] was determined as 15 nM. In test [3], the K2 was found to be 30 nM and the pK2 is 7.52.

With `CCCNC(=O)c1ccccc1N1CCN(CCCCN2CC(=O)N3CCCC3C2=O)CC1` (stereo unspecified), the pK1 in test [1] is 5.91. Besides, the K1 in test [2] was found to be 1230 nM. In test [3], this compound displayed a K2 of 1350 nM and a pK2 of 5.87.

For `Nc1cccc(N2CCN(CCCCN3C(=O)C4CCCCN4C3=O)CC2)c1` (stereo unspecified), the pK1 in test [1] was determined as 7.17. Besides, the K1 in test [2] was determined as 68 nM. Moreover, in test [3], the K2 was 231 nM and the pK2 was determined as 6.64.

In the case of `Cc1ccccc1N1CCN(CCCCN2CC(=O)N3CCCC3C2=O)CC1` (stereo unspecified), in test [1], the pK1 turned out to be 7.92. The compound further came in with a K1 in test [2] of 12 nM. Moreover, in test [3], the K2 was found to be 25 nM and the pK2 was found to be 7.59.

With `Cc1ccccc1N1CCN(CCCN2CC(=O)N3CCCCC3C2=O)CC1` (stereo unspecified), in test [1], the pK1 is 6.84. In test [2], this compound registered a K1 of 143 nM. In addition, in test [3], the K2 was 29 nM and the pK2 worked out at 7.53.

`CC(C)C(=O)Nc1cccc(N2CCN(CCCCN3CC(=O)N4CCCCC4C3=O)CC2)c1` (stereo unspecified) gave a pK1 in test [1] of 6.7. In test [2], this compound yielded a K1 of 198 nM. Besides, in test [3], the K2 is 16100 nM and the pK2 stood at 4.79.

Compound `CCCNC(=O)c1ccccc1N1CCN(CCCN2C(=O)C3CCCN3C2=O)CC1` (stereo unspecified) had a pK1 in test [1] of 6.09. Besides, in test [2], the K1 was found to be 808 nM. Besides, in test [3], the K2 turned out to be 608 nM and the pK2 is 6.22.

Compound `O=C1C2CCCN2C(=O)N1CCCN1CCN(c2cccc(Br)c2)CC1` (stereo unspecified) displayed a pK1 in test [1] of 7.47. This compound returned a K1 in test [2] of 34 nM. For the same compound, in test [3], the K2 stood at 25 nM and the pK2 came out at 7.61.

For the compound `CCCCOc1ccccc1N1CCN(CCCN2C(=O)C3CCCN3C2=O)CC1` (stereo unspecified), in test [1], the pK1 was 7.82. This compound also gave a K1 in test [2] of 15 nM. Besides, in test [3], the K2 was determined as 6.4 nM and the pK2 was 8.19.

As for `CCCCOc1ccccc1N1CCN(CCCCN2CC(=O)N3CCCC3C2=O)CC1` (stereo unspecified), in test [1], the pK1 was 8.06. In addition, in test [2], the K1 worked out at 8.7 nM. In test [3], this compound yielded a K2 of 10.5 nM and a pK2 of 7.98.

`O=C1C2CCCCN2C(=O)N1CCCCN1CCN(c2cccc(Br)c2)CC1` (stereo unspecified) returned a pK1 in test [1] of 8.27. In test [2], this compound came in with a K1 of 5.4 nM. In test [3], this compound registered a K2 of 5.9 nM and a pK2 of 8.23.

`N#Cc1ccccc1N1CCN(CCCCN2C(=O)C3CCCN3C2=O)CC1` (stereo unspecified): the pK1 in test [1] was found to be 8.4. Further, the K1 in test [2] was 4 nM. In test [3], the K2 is 4.9 nM and the pK2 came to 8.31.

Regarding `O=C1C2CCCN2C(=O)CN1CCCCN1CCN(c2ccccc2C(F)(F)F)CC1` (stereo unspecified), the pK1 in test [1] was determined as 8.26. In addition, the K1 in test [2] stood at 5.5 nM. Also, in test [3], the K2 was found to be 72 nM and the pK2 worked out at 7.14.

On to `CCCNC(=O)c1ccccc1N1CCN(CCCCN2C(=O)C3CCCCN3C2=O)CC1` (stereo unspecified), for which the pK1 in test [1] came out at 6.42. For the same compound, in test [2], the K1 worked out at 378 nM. Further, in test [3], the K2 was 521 nM and the pK2 amounted to 6.28.

The compound `Cc1ccccc1N1CCN(CCCN2CC(=O)N3CCCC3C2=O)CC1` (stereo unspecified) showed a pK1 in test [1] of 7.31. The same compound came in with a K1 in test [2] of 48 nM. In test [3], this compound yielded a K2 of 17 nM and a pK2 of 7.76.

Consider `CC(C)C(=O)Nc1cccc(N2CCN(CCCCN3C(=O)C4CCCN4C3=O)CC2)c1` (stereo unspecified), for which, in test [1], the pK1 was 6.72. The K1 in test [2] came out at 193 nM. In addition, in test [3], the K2 worked out at 5420 nM and the pK2 was determined as 5.27.

The compound `CCCOC(=O)c1ccccc1N1CCN(CCCN2C(=O)C3CCCCN3C2=O)CC1` (stereo unspecified) displayed a pK1 in test [1] of 7.34. Also, the K1 in test [2] is 46 nM. In test [3], the K2 came to 13 nM and the pK2 was determined as 7.89.

In turn, `Cc1ccccc1N1CCN(CCCCN2C(=O)C3CCCN3C2=O)CC1` (stereo unspecified) came in with a pK1 in test [1] of 7.78. This compound also had a K1 in test [2] of 16 nM. In test [3], this compound had a K2 of 7 nM and a pK2 of 8.15.

Consider `CCCOC(=O)c1ccccc1N1CCN(CCCCN2C(=O)C3CCCN3C2=O)CC1` (stereo unspecified), for which the pK1 in test [1] is 8.32. The K1 in test [2] was determined as 4.8 nM. In addition, in test [3], the K2 is 41 nM and the pK2 came to 7.39.

Consider `CCCCOc1ccccc1N1CCN(CCCCN2C(=O)C3CCCCN3C2=O)CC1` (stereo unspecified), for which the pK1 in test [1] came to 8.66. This compound showed a K1 in test [2] of 2.2 nM. In test [3], the K2 amounted to 5 nM and the pK2 was found to be 8.3.

Consider `CCCCOc1ccccc1N1CCN(CCCN2CC(=O)N3CCCCC3C2=O)CC1` (stereo unspecified), for which the pK1 in test [1] is 7.04. In test [2], the K1 was found to be 92 nM. In test [3], the K2 worked out at 13 nM and the pK2 is 7.89.

In test [1], `N#Cc1ccccc1N1CCN(CCCN2C(=O)C3CCCCN3C2=O)CC1` (stereo unspecified) showed a pK1 of 7.19. In test [2], this compound yielded a K1 of 65 nM. In test [3], the K2 is 8.2 nM and the pK2 worked out at 8.09.

As for `N#Cc1ccccc1N1CCN(CCCN2CC(=O)N3CCCC3C2=O)CC1` (stereo unspecified), the pK1 in test [1] came out at 7.56. This compound showed a K1 in test [2] of 27 nM. In test [3], this compound displayed a K2 of 17 nM and a pK2 of 7.76.
